Article PMC11240139, “Exploring the antitumor potential of novel quinoline derivatives via tubulin polymerization inhibition in breast cancer; design, synthesis and molecular docking” (RSC Advances, 2024)

Legend:
[1] = test system: NCI-H522 (non-small cell lung cancer); assay: NCI-60 SRB cytotoxicity screen; format: cell-based; conditions: Homo sapiens; NCI-H522, single dose 10 μM; read-out: growth inhibition (GI%)
UACC-257 (melanoma) = assay: NCI-60 SRB cytotoxicity screen; format: cell-based; conditions: Homo sapiens; UACC-257, single dose 10 μM; read-out: growth inhibition (GI%)
COLO 205 (colon cancer) = assay: NCI-60 SRB cytotoxicity screen; format: cell-based; conditions: Homo sapiens; COLO 205, single dose 10 μM; read-out: growth inhibition (GI%)
[2] = test system: EKVX (non-small cell lung cancer); assay: NCI-60 SRB cytotoxicity screen; format: cell-based; conditions: Homo sapiens, single dose 10 μM, read-out: growth inhibition (GI%)
KM12 (colon cancer) = assay: NCI-60 SRB cytotoxicity screen; format: cell-based; conditions: Homo sapiens; KM12, single dose 10 μM; read-out: growth inhibition (GI%)
T-47D (breast cancer) = assay: NCI-60 SRB cytotoxicity screen; format: cell-based; conditions: Homo sapiens, T47D, single dose 10 μM, read-out: growth inhibition (GI%)
SK-OV-3 (ovarian cancer) = assay: NCI-60 SRB cytotoxicity screen; format: cell-based; conditions: Homo sapiens; SK-OV-3, single dose 10 μM; read-out: growth inhibition (GI%)
[3] = test system: A549/ATCC (non-small cell lung cancer); assay: NCI-60 SRB cytotoxicity screen; format: cell-based; conditions: Homo sapiens, single dose 10 μM, read-out: growth inhibition (GI%)
SF-268 (CNS cancer) = assay: NCI-60 SRB cytotoxicity screen; format: cell-based; conditions: Homo sapiens; SF-268, single dose 10 μM; read-out: growth inhibition (GI%)
OVCAR-8 (ovarian cancer) = assay: NCI-60 SRB cytotoxicity screen; format: cell-based; conditions: Homo sapiens; OVCAR-8, single dose 10 μM; read-out: growth inhibition (GI%)
LOX IMVI (melanoma) = assay: NCI-60 SRB cytotoxicity screen; format: cell-based; conditions: Homo sapiens, single dose 10 μM, read-out: growth inhibition (GI%)
MALME-3M (melanoma) = assay: NCI-60 SRB cytotoxicity screen; format: cell-based; conditions: Homo sapiens, single dose 10 μM, read-out: growth inhibition (GI%)
SF-295 (CNS cancer) = assay: NCI-60 SRB cytotoxicity screen; format: cell-based; conditions: Homo sapiens; SF-295, single dose 10 μM; read-out: growth inhibition (GI%)
ACHN (renal cancer) = assay: NCI-60 SRB cytotoxicity screen; format: cell-based; conditions: Homo sapiens, single dose 10 μM, read-out: growth inhibition (GI%)
[4] = test system: NCI/ADR-RES (ovarian cancer); assay: NCI-60 SRB cytotoxicity screen; format: cell-based; conditions: Homo sapiens, single dose 10 μM, read-out: growth inhibition (GI%)
HS 578T (breast cancer) = assay: NCI-60 SRB cytotoxicity screen; format: cell-based; conditions: Homo sapiens, single dose 10 μM, read-out: growth inhibition (GI%)
UACC-62 (melanoma) = assay: NCI-60 SRB cytotoxicity screen; format: cell-based; conditions: Homo sapiens; UACC-62, single dose 10 μM; read-out: growth inhibition (GI%)
IGROV1 (ovarian cancer) = assay: NCI-60 SRB cytotoxicity screen; format: cell-based; conditions: Homo sapiens, IGROV-1; IGROV1, single dose 10 μM; read-out: growth inhibition (GI%)
DU-145 (prostate cancer) = assay: NCI-60 SRB cytotoxicity screen; format: cell-based; conditions: Homo sapiens; DU-145, single dose 10 μM; read-out: growth inhibition (GI%)
BT-549 (breast cancer) = assay: NCI-60 SRB cytotoxicity screen; format: cell-based; conditions: Homo sapiens; BT-549, single dose 10 μM; read-out: growth inhibition (GI%)
HCT-15 (colon cancer) = assay: NCI-60 SRB cytotoxicity screen; format: cell-based; conditions: Homo sapiens; HCT-15, single dose 10 μM; read-out: growth inhibition (GI%)
RXF 393 (renal cancer) = assay: NCI-60 SRB cytotoxicity screen; format: cell-based; conditions: Homo sapiens; RXF 393, single dose 10 μM; read-out: growth inhibition (GI%)
[5] = test system: HOP-62 (non-small cell lung cancer); assay: NCI-60 SRB cytotoxicity screen; format: cell-based; conditions: Homo sapiens; HOP-62, single dose 10 μM; read-out: growth inhibition (GI%)
OVCAR-5 (ovarian cancer) = assay: NCI-60 SRB cytotoxicity screen; format: cell-based; conditions: Homo sapiens; OVCAR-5, single dose 10 μM; read-out: growth inhibition (GI%)
RPMI-8226 (leukemia) = assay: NCI-60 SRB cytotoxicity screen; format: cell-based; conditions: Homo sapiens; RPMI-8226, single dose 10 μM; read-out: growth inhibition (GI%)
CCRF-CEM (leukemia) = assay: NCI-60 SRB cytotoxicity screen; format: cell-based; conditions: Homo sapiens, single dose 10 μM, read-out: growth inhibition (GI%)
SNB-75 (CNS cancer) = assay: NCI-60 SRB cytotoxicity screen; format: cell-based; conditions: Homo sapiens, SNB-75, SNB-75, single dose 10 μM; read-out: growth inhibition (GI%)
K-562 (leukemia) = assay: NCI-60 SRB cytotoxicity screen; format: cell-based; conditions: Homo sapiens; K-652 [sic], single dose 10 μM; read-out: growth inhibition (GI%)
SK-MEL-2 (melanoma) = assay: NCI-60 SRB cytotoxicity screen; format: cell-based; conditions: Homo sapiens; SK-MEL-2, single dose 10 μM; read-out: growth inhibition (GI%)

| Structure (SMILES) | inhibition at 10 µM [1] | inhibition at 10 µM (UACC-257 (melanoma)) | inhibition at 10 µM (COLO 205 (colon cancer)) | inhibition at 10 µM [2] | inhibition at 10 µM (KM12 (colon cancer)) | inhibition at 10 µM (T-47D (breast cancer)) | inhibition at 10 µM (SK-OV-3 (ovarian cancer)) | inhibition at 10 µM [3] | inhibition at 10 µM (SF-268 (CNS cancer)) | inhibition at 10 µM (OVCAR-8 (ovarian cancer)) | inhibition at 10 µM (LOX IMVI (melanoma)) | melting point | inhibition at 10 µM (MALME-3M (melanoma)) | inhibition at 10 µM (SF-295 (CNS cancer)) | inhibition at 10 µM (ACHN (renal cancer)) | inhibition at 10 µM [4] | inhibition at 10 µM (HS 578T (breast cancer)) | inhibition at 10 µM (UACC-62 (melanoma)) | inhibition at 10 µM (IGROV1 (ovarian cancer)) | inhibition at 10 µM (DU-145 (prostate cancer)) | also measured |
| --- | --- | --- | --- | --- | --- | --- | --- | --- | --- | --- | --- | --- | --- | --- | --- | --- | --- | --- | --- | --- | --- |
| CCc1cccc2cc(C3C=C(c4ccc(OC)c(OC)c4)NC(=S)N3)c(Cl)nc12 (stereo not drawn) [Compound 6b, 4-(2-Chloro-8-ethylquinolin-3-yl)-6-(3,4-dimethoxyphenyl)-3,4-dihydropyrimidine-2(1H)-thione] | 22.1% | < 10% | < 10% | < 10% | < 10% | 24.9% | < 10% | < 10% | 16.6% | < 10% | < 10% | 237 to 239 °C | < 10% | < 10% | < 10% | 11.1% | 12.9% | 10.3% | < 10% | < 10% | inhibition at 10 µM (BT-549 (breast cancer)): 12.8%; inhibition at 10 µM (HCT-15 (colon cancer)): < 10%; inhibition at 10 µM (RXF 393 (renal cancer)): < 10%; inhibition at 10 µM [5]: 11%; inhibition at 10 µM (OVCAR-5 (ovarian cancer)): < 10%; inhibition at 10 µM (RPMI-8226 (leukemia)): 36.1%; inhibition at 10 µM (CCRF-CEM (leukemia)): 11%; inhibition at 10 µM (SNB-75 (CNS cancer)): < 10%; inhibition at 10 µM (K-562 (leukemia)): 10.5%; inhibition at 10 µM (SK-MEL-2 (melanoma)): < 10% |
| CCc1cccc2cc(-c3cc(-c4ccc(F)cc4)[nH]c(=O)c3C#N)c(Cl)nc12 [Compound 4d, 4-(2-Chloro-8-ethylquinolin-3-yl)-6-(4-fluorophenyl)-2-oxo-1,2-dihydropyridine-3-carbonitrile] | < 10% | < 10% | < 10% | < 10% | < 10% | 14.4% | < 10% | < 10% | < 10% | < 10% | 15.3% | 260 to 262 °C | < 10% | < 10% | < 10% | < 10% | < 10% | 16.5% | < 10% | < 10% | inhibition at 10 µM (BT-549 (breast cancer)): 17.8%; inhibition at 10 µM (HCT-15 (colon cancer)): 11.1%; inhibition at 10 µM (RXF 393 (renal cancer)): < 10%; inhibition at 10 µM [5]: < 10%; inhibition at 10 µM (OVCAR-5 (ovarian cancer)): < 10%; inhibition at 10 µM (RPMI-8226 (leukemia)): 14%; inhibition at 10 µM (CCRF-CEM (leukemia)): < 10%; inhibition at 10 µM (SNB-75 (CNS cancer)): < 10%; inhibition at 10 µM (K-562 (leukemia)): 27.2%; inhibition at 10 µM (SK-MEL-2 (melanoma)): < 10% |
| CCc1cccc2cc(C3C=C(c4ccc(F)cc4)NC(=S)N3)c(Cl)nc12 (stereo not drawn) [Compound 6d, 4-(2-Chloro-8-ethylquinolin-3-yl)-6-(4-fluorophenyl)-3,4-dihydropyrimidine-2(1H)-thione] | 25% | < 10% | < 10% | < 10% | 13.2% | 23.9% | < 10% | < 10% | 14.9% | < 10% | < 10% | 220 to 222 °C | < 10% | < 10% | < 10% | 17% | < 10% | 14.2% | < 10% | < 10% | inhibition at 10 µM (BT-549 (breast cancer)): < 10%; inhibition at 10 µM (HCT-15 (colon cancer)): 26.2%; inhibition at 10 µM (RXF 393 (renal cancer)): < 10%; inhibition at 10 µM [5]: 15.2%; inhibition at 10 µM (OVCAR-5 (ovarian cancer)): < 10%; inhibition at 10 µM (RPMI-8226 (leukemia)): 19.3%; inhibition at 10 µM (CCRF-CEM (leukemia)): < 10%; inhibition at 10 µM (SNB-75 (CNS cancer)): < 10%; inhibition at 10 µM (K-562 (leukemia)): 27.6%; inhibition at 10 µM (SK-MEL-2 (melanoma)): < 10% |
